Assay results reported in US20250127774A1, “COMPOUNDS FOR LABELLING NUCLEIC ACID AND USES THEREOF” (THE ROYAL INSTITUTION FOR THE ADVANCEMENT OF …, priority 2022, published 2025).
Read-outs that look alike come from different tables or passages of the source.

How the values were obtained:
[1] = Kinetic measurements with the VdU nucleoside (non-templated IEDDA reaction); conditions: 50 mM aq. NaOAc buffer pH 5.2 (27% DMSO)
Procedure: A) Fluorescence increase versus time upon mixing PINK with VdU. […] B) Normalized increase of fluorescence. C) Plot of the observed rates k′ versus PINK concentrations. The slope yields the rate constant k.
PINK (4) undergoes a highly fluorogenic and regioselective IEDDA reaction with VdU (5) to give “PINK-VdU-ox” (6) as a single isomer in a 76% isolated yield after 7d at 60° C. (Scheme 1). The slow rate of this non-templated reaction (Kapp=0.01 M^−1 s^−1, FIG. 5) is due to the combination of an unstrained terminal alkene and unactivated tetrazine.^[49] Over the course of the reaction, a ˜100-fold increase in fluorescence was observed (FIG. 3, c). […]
Kinetic Measurements with the VdU Nucleoside. Second order reaction rates between PINK and VdU were determined under pseudo first order conditions with a large excess of the dienophile over the tetrazine. […] Measurements were performed on a SpectraMax M5 plate reader (Molecular Devices, Sunnyvale, CA, USA) in 384 well plates (Greiner bio-one, cat-#871906; 50 μL per well; covered with 20 μL spectroscopic grade silicon oil to avoid evaporation). […] Samples were measured over 18 h in intervals of 10 min. […] Reactions rates were calculated using pseudo first order approximations fitting the measurements to mono exponential equations. The reported reaction rate is an arithmetic mean determined from three independent experiments.

[2] = test system: vinyl-modified RNA in Hela cells; test: Metabolic RNA labeling; assay type: cell-based; conditions: VU 2.5 mM 24 h, PINK 100 μM 5 h; diminished by RNase A/T1
Procedure: The labeling approach was extended to vinyl-modified RNA. Hela cells were seeded in ibidi® 8-well plates (5.000 cells per well) and allowed to settle overnight. Cells were then incubated with 5-vinyl uridine (VU, 2.5 mM) for 24 h. After 19 h, PINK (100 μM final concentration) was added for 5 h. […]. Cells were fixed and optionally treated with RNase A/T1 mix (100 μg/mL RNase A; 250 U/mL RNase T1). Total cellular DNA was counterstained with Hoechst 33342 (5 μg/mL). Images were acquired on confocal microscopes under 20× (a) or 63× (b) magnification (FIG. 13).
Metabolic RNA Labeling. Hela cells were seeded in μ-slide 8-well chambers (ibidi®), cat-#: 80826) at a density of 2.0×10^4 cells per mL (5.000 cells per well) and allowed to settle overnight. Cells were aspirated and 5-vinyl uridine (VU, 2.5 mM, 0.1% DMSO) was added. Cells were incubated for 19 h, at which point PINK (100 μM; 0.2% DMSO final concentrations) was added. After additional 5 h, cells were aspirated, washed with PBS, and fixed with 3.7% PFA in PBS for 15 min. Cells were quenched with 50 mM glycine/NH4Cl for 5 min, washed with PBS, and permeabilized twice with 0.2% Triton X-100 in PBS for 5 min each followed by washing with PBS, twice 100 mM NaOAc buffer (pH 5.2), 10% DMSO in PBS, and PBS for 5 min each. […]

[3] = test system: MV4-11 cells; test: Resazurin combination toxicity assay; assay type: cell-based; conditions: Homo sapiens
Procedure: (§1) From the single toxicity experiment, it was determined that the optimal subtoxic concentration of PINK to be used for the combination toxicity assays would be 1 μM. To test how effective the vinyl-nucleosides (VdU/VdA) in combination with PINK are at killing the cells compared to the vinyl-nucleosides alone, another resazurin reduction assay was carried out.
(§2) To determine if it is possible to treat the leukemia cells with the vinyl-nucleosides and PINK simultaneously, instead of adding them sequentially, another resazurin reduction assay using the same concentrations of each compound as in the previous combination experiment was carried out, where instead the vinyl-nucleosides and PINK were added on the same day instead of on two consecutive days.
(§3) Resazurin Combination toxicity assays. MV4-11, MOLM-13 and Jurkat cells were seeded in 96-well plates at a density of 20 000 cells/well, 25 000 cells/well and 30 000 cells/well, respectively, in triplicates. For the sequential addition, the cells were first treated with the nucleosides (VdU/VdA) diluted in fresh media in 1:4 serial dilutions (˜0.01% DMSO) at concentrations of 500-0 μM, and incubated overnight. 24h post nucleoside addition, the cells were treated with 1 μM PINK diluted in fresh media (˜1% DMSO), and incubated for 24-72h. The cells were treated with resazurin, incubated and measured, as described above. For the simultaneous addition, the cells were treated with nucleosides and PINK on the same day at the same concentrations as describes above, and incubated for 24-72h.

[4] = test system: Jurkat cells; test: Resazurin combination toxicity assay; assay type: cell-based; conditions: Homo sapiens
Procedure: as §1, §2, §3

[5] = 48 h, variable VdU/VdA alone or with 1 μM PINK added on the same day, read-out: IC50 value (48 h) for simultaneous addition
[6] = variable VdU/VdA alone or with 1 μM PINK added 24 h post nucleoside addition, read-out: IC50 value (48 h) for sequential addition

SMILES | rate of non-templated reaction (Kapp) ([1]; 100 μM PINK, 1-5 mM VdU) | stability of PINK under control conditions (0 mM VdU) ([1]; 18 h) | fluorescent signal of live-cell metabolic RNA labeling [2] | IC50 [3, 5] | IC50 [3, 6] | IC50 [4, 5] | IC50 [4, 6]
Cc1nnc(-c2ccc3cc4ccc(N(C)C)cc4nc3c2)nn1 [PINK] | 0.01 M⁻¹ s⁻¹ | full stability | strong fluorescent signal | – | – | – | –
C=Cc1cn([C@H]2C[C@H](O)[C@@H](CO)O2)c(=O)[nH]c1=O [VdU, 5-vinyl-2′-deoxyuridine] | – | – | – | 124 µM | 60 µM | 404 µM | 58 µM
